Experimental data as given in article PMC3361616 (European Journal of Medicinal Chemistry, 2012).
Structures can show the parent of a compound that is named as a salt.

Legend:
[1] = biological target: T1, 5HT1A receptor (Homo sapiens, UniProt P08908); experiment: NIMH-PDSP radioligand binding, 5HT1A; details: for fold increase in binding affinity to the 5HT1A receptor: over compound 8
T1 sequence (P08908 1-422): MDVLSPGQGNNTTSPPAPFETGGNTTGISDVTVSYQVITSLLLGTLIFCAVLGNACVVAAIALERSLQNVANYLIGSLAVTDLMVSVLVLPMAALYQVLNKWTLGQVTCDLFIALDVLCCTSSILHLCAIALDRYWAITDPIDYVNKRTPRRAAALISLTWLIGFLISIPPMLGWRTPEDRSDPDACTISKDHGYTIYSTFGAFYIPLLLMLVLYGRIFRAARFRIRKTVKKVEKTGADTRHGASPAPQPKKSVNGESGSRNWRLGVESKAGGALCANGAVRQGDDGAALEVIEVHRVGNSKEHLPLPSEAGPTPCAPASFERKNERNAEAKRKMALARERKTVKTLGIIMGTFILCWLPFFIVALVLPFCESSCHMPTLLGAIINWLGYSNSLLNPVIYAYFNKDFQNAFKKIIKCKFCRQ

[2] = biological target: serotonin transporter (SERT) (Homo sapiens, UniProt P31645); experiment: NIMH-PDSP radioligand binding, SERT
[3] = biological target: T2, D4 receptor (DAD4) (Homo sapiens, UniProt P21917); experiment: NIMH-PDSP radioligand binding, DAD4
T2 sequence (P21917 1-419): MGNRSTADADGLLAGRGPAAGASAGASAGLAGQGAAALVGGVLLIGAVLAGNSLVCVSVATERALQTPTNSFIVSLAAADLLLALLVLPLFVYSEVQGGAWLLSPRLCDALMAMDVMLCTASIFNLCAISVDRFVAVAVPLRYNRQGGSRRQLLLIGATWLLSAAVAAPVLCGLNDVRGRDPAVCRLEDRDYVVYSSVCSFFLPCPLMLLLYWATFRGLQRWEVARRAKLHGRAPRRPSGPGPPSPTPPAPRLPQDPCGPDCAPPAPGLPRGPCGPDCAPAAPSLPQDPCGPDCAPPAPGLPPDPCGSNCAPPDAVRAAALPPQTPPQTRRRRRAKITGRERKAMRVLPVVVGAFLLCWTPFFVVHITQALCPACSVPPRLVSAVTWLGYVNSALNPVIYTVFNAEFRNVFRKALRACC

Sequence of serotonin transporter (SERT) (P31645 whole entry, species assumed): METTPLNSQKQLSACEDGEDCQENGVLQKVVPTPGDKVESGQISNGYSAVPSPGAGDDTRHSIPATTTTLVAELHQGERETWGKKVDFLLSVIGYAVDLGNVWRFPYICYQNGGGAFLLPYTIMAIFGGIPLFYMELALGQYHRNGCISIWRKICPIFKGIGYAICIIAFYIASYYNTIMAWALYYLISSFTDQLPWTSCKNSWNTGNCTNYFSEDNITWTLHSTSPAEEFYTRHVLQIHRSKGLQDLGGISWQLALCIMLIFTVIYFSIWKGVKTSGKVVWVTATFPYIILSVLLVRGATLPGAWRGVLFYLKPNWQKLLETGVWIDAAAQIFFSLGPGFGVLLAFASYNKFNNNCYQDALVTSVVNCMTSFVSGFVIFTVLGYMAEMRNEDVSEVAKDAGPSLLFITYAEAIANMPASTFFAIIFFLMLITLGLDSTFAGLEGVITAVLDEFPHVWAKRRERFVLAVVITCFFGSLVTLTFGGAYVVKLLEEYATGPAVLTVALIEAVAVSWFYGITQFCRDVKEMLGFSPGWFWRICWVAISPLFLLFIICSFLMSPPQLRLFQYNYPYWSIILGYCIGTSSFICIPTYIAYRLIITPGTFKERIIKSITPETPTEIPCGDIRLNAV

Question: Which results are given for `Clc1ccc(N2CCN(CCCCc3nc4ccccc4s3)CC2)cc1` [Compound 8, 2-(4-(4-(4-Chlorophenyl)piperazin-1-yl)butyl)benzo[d]thiazole]?
Answer: fold increase in binding to the 5HT1A receptor ([1]; compared with compound 4): ~3 fold; fold decrease in binding at the SERT site ([2]; compared with compound 4): 2.6 fold

Question: With `c1ccc2c(c1)CCN(CCCCc1nc3ccccc3s1)C2` [Compound 11, 2-(4-Benzo[d]thiazol-2-yl-butyl)-1,2,3,4-tetrahydro-isoquinoline p-toluenesulfonate] as the molecule, how does the “fold increase in binding affinity to the 5HT1A receptor” value [1] read?
Answer: about 18 fold

Question: `O=C(CCCCN1CCN(c2ccc(Cl)cc2)CC1)c1nc2ccccc2s1` [Compound 20, 1-(Benzo[d]thiazol-2-yl)-5-(4-(4-chlorophenyl)piperazin-1-yl)pentan-1-one hydrochloride] was tested. Which “fold increase in binding affinity to the 5HT1A receptor” value [1] did it give?
Answer: over 3 fold

Question: And the “fold enhancement of binding to SERT” value ([2]; compared with compound 8)?
Answer: over 2 fold

Question: What about the Ki [3] of the same molecule?
Answer: 100 ± 10 nM

Question: Which “fold decrease in binding affinity at the 5HT1A receptor” value ([1]; compared with compound 22) does the source give for `O=C(CCCCN1CCC(c2ccccc2)CC1)c1nc2ccccc2s1` [Compound 23, 1-(Benzo[d]thiazol-2-yl)-5-(4-phenyl-piperidin-1-yl)-pentan-1-one hydrochloride] here?
Answer: 2 fold
